Results as given in patent US11767319B2, “Crystalline forms of a selective c-kit kinase inhibitor” (Third Harmonic Bio, Inc., priority 2020, dated 2023).

Legend:
Format in all cases: physicochemical
[1] = Hydration mapping starting with amorphous compound 1
Experimental: To establish the hydration map of compound 1, solutions with varying water activity (aw) were prepared and the aw was measured using a water activity meter. Table 13 below details the solvent systems investigated and their corresponding measured water activities.
To prepare amorphous material, 480 mg of Form A of compound 1 was weighed into a vial before being dissolved in 24 mL 1,4-dioxane. The resulting solution was then split evenly between 24 vials before being placed in the chamber of a freeze dryer at −50° C. to completely freeze the samples. The samples were then freeze dried overnight (approx. 18 h) and fluffy off-white solids were recovered. A small sub-sample of solid from one vial was analyzed by XRPD to confirm that amorphization had occurred. Using the other 23 vials of amorphous material, 1 mL of the solutions prepared above was added to each vial to prepare slurries. As before, where solutions were observed a brief manual agitation, an additional ˜10 to 20 mg of amorphous material was added to prepare a slurry. Additional solid was added to the 2-MeTHF, acetone/water (aw of 0.14 and 0.28), methanol/water (aw of 0.11) and acetonitrile/water (aw of 0.11) samples. All slurries were then agitated for 72 h at 25° C. After 72 h, aliquots of solid were isolated via centrifugal filtration and analyzed by XRPD.

[2] = Ethanol/hydrocarbon mixtures slurry study
Experimental: Using the methods described above for the Form A input and amorphous input experiments, 5×20 mg of Form A slurries and 5×20 mg of amorphous input slurries were prepared by adding 1 mL of solvent (see Table 16 below) to each vial and the resulting slurries were agitated for 24 h at 25° C. After 24 h, aliquots of solid were isolated via centrifugal filtration and analysed by XRPD.

[3] = Form investigation in buffered media; conditions: for XRPD Pattern / pH (24 h): 24 h at 25° C.
Experimental: To investigate the polymorphic landscape of compound 1 in buffered systems, 5×20 mg of Form A slurries and 5×20 mg of amorphous slurries (amorphous material prepared using the method described in the above hydration mapping experiments) were prepared by adding 1 mL of buffer to each vial and the resulting slurries were agitated for 24 h at 25° C. The pH was measured post-buffer addition and after 24 h agitation. After 24 h, aliquots of solid were isolated via centrifugal filtration and analysed by XRPD.

SMILES: Cc1ccc(-c2noc([C@H]3C[C@@H]3F)n2)cc1NC(=O)c1cnc2ccccn12 [Amorphous Compound 1, N-(5-(5-((1R,2S)-2-fluorocyclopropyl)-1,2,4-oxadiazol-3-yl)-2-methylphenyl)imidazo[1,2-a]pyridine-3-carboxamide]
- XRPD pattern observed, 72 h ([1]; 2-MeTHF, aw 0.0378, 25° C.): Forms A, H^A and D
- XRPD pattern observed, 72 h ([1]; Acetone/Water, aw 0.1363, 25° C.): Form H^A
- XRPD pattern observed, 72 h ([1]; Acetone/Water, aw 0.2621, 25° C.): Form H^A
- XRPD pattern observed, 72 h ([1]; Acetone/Water, aw 0.5455, 25° C.): Form H^A
- XRPD pattern observed, 72 h ([1]; Acetone/Water, aw 0.7082, 25° C.): Form H^A
- XRPD pattern observed, 72 h ([1]; Acetone/Water, aw 0.9439, 25° C.): Form H^A and possibly Form C
- XRPD pattern observed, 72 h ([1]; EtOH/Heptane, aw 0.0300, 25° C.): Form E
- XRPD pattern observed, 72 h ([1]; EtOH/Water, aw 0.1580, 25° C.): Form H^A
- XRPD pattern observed, 72 h ([1]; EtOH/Water, aw 0.3377, 25° C.): Form H^A
- XRPD pattern observed, 72 h ([1]; EtOH/Water, aw 0.4986, 25° C.): Form H^A
- XRPD pattern observed, 72 h ([1]; EtOH/Water, aw 0.7600, 25° C.): Form A and Form H^A and additional peaks
- XRPD pattern observed, 72 h ([1]; EtOH/Water, aw 0.9005, 25° C.): Form A and Form H^A and additional peaks
- XRPD pattern observed, 72 h ([1]; MeCN/Water, aw 0.1060, 25° C.): Form H^A
- XRPD pattern observed, 72 h ([1]; MeCN/Water, aw 0.3664, 25° C.): Form H^A
- XRPD pattern observed, 72 h ([1]; MeCN/Water, aw 0.5573, 25° C.): Form H^A
- XRPD pattern observed, 72 h ([1]; MeCN/Water, aw 0.7300, 25° C.): Form H^A
- XRPD pattern observed, 72 h ([1]; MeCN/Water, aw 0.8946, 25° C.): Form H^A
- XRPD pattern observed, 72 h ([1]; MeOH/Water, aw 0.0963, 25° C.): Form H^A
- XRPD pattern observed, 72 h ([1]; MeOH/Water, aw 0.3242, 25° C.): Form H
- XRPD pattern observed, 72 h ([1]; MeOH/Water, aw 0.5145, 25° C.): Form H^A
- XRPD pattern observed, 72 h ([1]; MeOH/Water, aw 0.6965, 25° C.): Form H^A
- XRPD pattern observed, 72 h ([1]; MeOH/Water, aw 0.9294, 25° C.): Form C
- XRPD pattern observed, 72 h ([1]; Water/2-MeTHF, aw 0.5286, 25° C.): Form H^A
- XRPD pattern observed ([2]; EtOH/Cyclohexane (50:50% v/v), aw 0.025, 24 h at 25° C.): Form E
- XRPD pattern observed ([2]; EtOH/Dodecane (50:50% v/v), aw 0.024, 24 h at 25° C.): Form H^A
- XRPD pattern observed ([2]; EtOH/Hexane (50:50% v/v), aw 0.018, 24 h at 25° C.): Form E
- XRPD pattern observed ([2]; EtOH/Methylcyclohexane (50:50% v/v), aw 0.019, 24 h at 25° C.): Form E
- XRPD pattern observed ([2]; EtOH/Octane (50:50% v/v), aw 0.019, 24 h at 25° C.): Form E
- XRPD Pattern ([3]; NaOH (0.2M)): Form C
- XRPD Pattern ([3]; pH 1.2 (HCl—KCl)): HCl Salt Form
- XRPD Pattern ([3]; pH 4.5 (acetate)): Form F
- XRPD Pattern ([3]; pH 6.8 (phosphate)): Form C
- XRPD Pattern ([3]; pH 8 (PBS)): Form H^B
- pH (Post-Buffer Addition) ([3]; slurry in NaOH (0.2M)): 11.97
- pH (24 h) ([3]; slurry in NaOH (0.2M)): 11.87
- pH (Post-Buffer Addition) ([3]; slurry in pH 1.2 (HCl—KCl)): 1.21
- pH (24 h) ([3]; slurry in pH 1.2 (HCl—KCl)): 1.21
- pH (Post-Buffer Addition) ([3]; slurry in pH 4.5 (acetate)): 4.53
- pH (24 h) ([3]; slurry in pH 4.5 (acetate)): 4.55
- pH (Post-Buffer Addition) ([3]; slurry in pH 6.8 (phosphate)): 6.85
- pH (24 h) ([3]; slurry in pH 6.8 (phosphate)): 6.87
- pH (Post-Buffer Addition) ([3]; slurry in pH 8 (PBS)): 8.01
- pH (24 h) ([3]; slurry in pH 8 (PBS)): 8.11
